We go through 13 compounds from patent publication US12053451B2, “Arginase inhibitors and their therapeutic applications” (OncoArendi Therapeutics S.A., priority 2016, dated 2024).

Test [1] concerns the target T1, intracellular arginase in macrophages isolated from murine bone marrow (BMDM) (Mus musculus, UniProt Q61176).
T1 construct: endogenous in cells; host or cells: primary bone marrow derived macrophages from Balb/c mice, M-CSF and IL-4 treated
T1 sequence (Q61176 1-323): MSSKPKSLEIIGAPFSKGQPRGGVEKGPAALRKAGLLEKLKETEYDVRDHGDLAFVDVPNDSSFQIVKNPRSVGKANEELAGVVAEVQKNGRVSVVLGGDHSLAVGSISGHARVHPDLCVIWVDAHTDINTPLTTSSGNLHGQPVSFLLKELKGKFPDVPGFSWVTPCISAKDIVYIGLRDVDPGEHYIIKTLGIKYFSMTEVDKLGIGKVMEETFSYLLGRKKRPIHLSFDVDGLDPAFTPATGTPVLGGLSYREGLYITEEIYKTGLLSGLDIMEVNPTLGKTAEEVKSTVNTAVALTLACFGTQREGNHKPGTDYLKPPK
Nature of the test: Cell-based assay: intracellular arginase in bone marrow derived macrophages (BMDM), urea level. Also on record: species or system Balb/c mice. Conditions: murine BMDM with M-CSF and IL-4, urea measured 24 hours after compound; * = most potent diastereoisomer or mixture of diastereoisomers; read-out: Activity Class (BMDM). How it is done:
Efficacy of Selected Examples Towards Intracellular Arginase in Macrophages Isolated from Murine Bone Marrow—Bone Marrow Derived Macrophages (BMDM)
Materials & Methods: The assay was performed according to modified literature protocol modification (Pineda-Torra I et al., Methods Mol Biol. 2015; 1339:101-9. Mia S et al. Scand J Immunol. 2014 May; 79(5):305-14). The femurs and tibias were isolated from Balb/c mice. Bones were cleaned from all attached tissues by using sterile swab without affecting the bone structure. Bones were sterilized by immersion in 70% ethanol for 5 min and then rinsed in PBS. The sides of the bones were cut off and flush with cold sterile PBS by using 26-G needle S into a 50 mL sterile tube with a cell strainer (Falcon™, Cat. No. U00149), until bone cavity appeared white. Then the cells were centrifuged (5 min at 500×G, 4° C.), washed twice with PBS and counted. Cells were plated in Petri dish in density of 1×10^6/mL and cultured in DMEM (Gibco, Cat. No. 31331-029) with 10% FBS, 1% pen-strep and 50 ng/mL M-CSF (PeproTech, Cat. No. 315-02), (37° C., 5% CO2). After five days cells were subcultured into P96 plate (BD, Cat. No. 353072) in density of 64 000 cells/well in medium supplemented with 50 ng/mL M-CSF and 20 ng/mL IL-4 (Biomibo Cat. No. 214-1). One day later exemplary compounds (dissolved in PBS) were added in several different concentrations and 24 hours later the level of urea was measured in each well (Jung D et al., Clin Chem. 1975, 21(8):1136-40). The concentration of urea in the absence of any compound was considered as the maximum. The absorbance of cell culture media (background) was subtracted from all the values.
(§1) For selected examples the activity class for ARG2 was estimated based on % of inhibition for 1 μM and 100 μM concentration of tested compounds.

In test [2] the target is T2, recombinant human arginase 2 (Homo sapiens, UniProt P78540).
T2 construct: made in house; host or cells: CHO
T2 sequence (P78540 23-354): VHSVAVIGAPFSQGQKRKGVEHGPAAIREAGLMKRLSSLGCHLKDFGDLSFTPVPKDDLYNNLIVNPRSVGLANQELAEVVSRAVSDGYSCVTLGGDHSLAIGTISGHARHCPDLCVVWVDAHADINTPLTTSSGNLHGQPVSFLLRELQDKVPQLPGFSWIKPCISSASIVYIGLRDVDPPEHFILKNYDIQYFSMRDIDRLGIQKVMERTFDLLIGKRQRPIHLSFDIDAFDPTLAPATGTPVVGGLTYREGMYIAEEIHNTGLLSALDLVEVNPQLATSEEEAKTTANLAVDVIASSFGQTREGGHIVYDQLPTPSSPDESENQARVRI
As to the kind of experiment: Human arginase activity assay (urea measurement), arginase 2. It counts as biochemical. The conditions noted are these: for selected examples class estimated from % of inhibition at 1 μM and 100 μM, * = most potent diastereoisomer or mixture of diastereoisomers, read-out: Activity Class (ARG II). Here is the method:
(§2) Human Arginase Activity Assay
An enzymatic assay with recombinant human arginases 1 (Biolegend, Cat. No. 552502) and 2 (homemade in eukaryotic expression system of CHO, purified by FPLC) was used in order to assess inhibitory activity of the compounds. The assay was run in the 96-well plate format, each reaction in the total volume of 100 uL. The assay is based on urea measurement, which is a product of L-arginine enzymatic degradation. (Baggio et al. J Pharmacol. Exp. Ther. 1999, 290, 1409-1416). The color product is developed by adding a mixture of reagent A (4 mM oPA in 50 mM boric acid in 1M sulfuric acid, 0.03% Brij-35) and reagent B (4 mM NED in 50 mM boric acid in 1M sulfuric acid, 0.03% Brij-35) in equal proportions. The absorbance for each well was measured at 530 nm.
(§3) Briefly, to each well of a 96-well microtiter plate 40 μL of enzyme in the reaction assay buffer (pH 7.4, 100 mM sodium phosphate buffer, 130 mM NaCl, 1 mg/mL albumin), 50 μL of the test compound solution and 10 μL of enzyme substrate solution (L-arginine hydrochloride, natural pH 5.6, final concentration 20 mM and a cofactor—manganese chloride, final concentration 150 μM) was added. For positive control, only the enzyme and substrate were used, the negative controls contained substrate solution with assay buffer. After incubating the microtiter plate at 37° C. for 60 min 150 μL of mixed reagents A and B was added to each well to stop the reaction. Absorbance was measured (λ=530 nm) 20 minutes later, after color development. The urea production in the absence of any compound was considered the maximum arginase activity. The absorbance in the absence of arginase (background) was subtracted from all the values. The normalized OD was used to generate a concentration-response curve by plotting the percent of inhibition against log[concentration] of the compound and using regression analysis (GraphPad Prism 7.0) to compute the IC50 values.
as §1

Test [3] addresses T3, recombinant human arginase 1 (Homo sapiens, UniProt P05089).
T3 construct: purchased Biolegend 552502
T3 sequence (P05089 1-322): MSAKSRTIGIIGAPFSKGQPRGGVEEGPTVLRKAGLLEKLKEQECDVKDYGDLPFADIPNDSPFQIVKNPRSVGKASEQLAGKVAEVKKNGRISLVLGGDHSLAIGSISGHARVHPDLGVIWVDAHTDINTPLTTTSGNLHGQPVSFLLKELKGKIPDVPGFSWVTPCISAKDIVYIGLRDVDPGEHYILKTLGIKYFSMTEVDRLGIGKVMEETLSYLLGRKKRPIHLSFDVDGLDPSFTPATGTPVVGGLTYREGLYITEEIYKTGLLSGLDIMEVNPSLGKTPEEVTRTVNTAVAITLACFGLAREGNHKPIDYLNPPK
As to the kind of experiment: Human arginase activity assay (urea measurement), arginase 1. It counts as biochemical. Conditions: recombinant human arginase 1, pH 7.4, 37° C., 60 min; * = value for the most potent diastereoisomer or the mixture of diastereoisomers; read-out: Activity Class (ARG I). Here is the method:
as §2
The assay was run in the 96-well plate format, each reaction in the total volume of 100 uL. The assay is based on urea measurement, which is a product of L-arginine enzymatic degradation. […] The color product is developed by adding a mixture of reagent A (4 mM oPA in 50 mM boric acid in 1M sulfuric acid, 0.03% Brij-35) and reagent B (4 mM NED in 50 mM boric acid in 1M sulfuric acid, 0.03% Brij-35) in equal proportions. The absorbance for each well was measured at 530 nm.
as §3, with “For” for “Briefly, to each well of a 96-well microtiter plate 40 μL of enzyme in the reaction assay buffer (pH 7.4, 100 mM sodium phosphate buffer, 130 mM NaCl, 1 mg/mL albumin), 50 μL of the test compound solution and 10 μL of enzyme substrate solution (L-arginine hydrochloride, natural pH 5.6, final concentration 20 mM and a cofactor—manganese chloride, final concentration 150 μM) was added. For”

Structures can show the parent of a compound that is named as a salt.

As for `CN(C)C[C@H]1CC[C@@H](CCB(O)O)C[C@]1(N)C(=O)O` (racemic) [Example 18, rac-(1R,2R,5R)-1-Amino-5-(2-boronoethyl)-2-((dimethylamino)methyl)-cyclohexane-1-carboxylic acid dihydrochloride], the results for the IC50 in test [1], in test [2] and in test [3] were 100 to 1000 nM, 1000 to 10000 nM and 100 to 1000 nM, respectively.
For `N[C@]1(C(=O)O)C[C@H](CCB(O)O)CC[C@H]1CN1CCCCC1` (racemic) [Example 31, rac-(1R,2S,5R)-1-amino-5-(2-boronoethyl)-2-(piperidin-1-ylmethyl)cyclohexanecarboxylic acid dihydrochloride], the figures for the IC50 in test [1], in test [2] and in test [3] were 1 to 100 nM, 100 to 1000 nM and 1 to 100 nM, respectively.
On to `N[C@]1(C(=O)O)C[C@H](CCB(O)O)CC[C@H]1CN1CCCC1` (racemic) [Example 22, rac-(1R,2S,5R)-1-Amino-5-(2-boronoethyl)-2-(pyrrolidin-1-ylmethyl)-cyclohexane-1-carboxylic acid dihydrochloride], for which the IC50 was 100 to 1000 nM in test [1], 100 to 1000 nM in test [2] and 1 to 100 nM in test [3].
As to `NC1(C(=O)O)C[C@H](CCB(O)O)CCC1CCN1CCCC1` (stereo partly drawn) [Example 46, (5R)-1-amino-5-(2-boronoethyl)-2-(2-(pyrrolidin-1-yl)ethyl)cyclohexanecarboxylic acid dihydrochloride], the IC50 is 100 to 1000 nM in test [1], 1 to 100 nM in test [2] and 1 to 100 nM in test [3].
For `CC1(O)CCC(CCB(O)O)CC1(N)C(=O)O` (centres unmarked) [Example 50, 1-amino-5-(2-boronoethyl)-2-hydroxy-2-methylcyclohexanecarboxylic acid hydrochloride], the IC50 is 10000 to 100000 nM in test [1], 100 to 1000 nM in test [2] and 100 to 1000 nM in test [3].
Turning to `CN(C)C[C@@H]1CC[C@@H](CCB2O[C@H]3C[C@H]4C[C@H](C4(C)C)[C@@]3(C)O2)C[C@]1(N)C(=O)O` [Example 44, (1R,2S,5R)-1-amino-2-((dimethylamino)methyl)-5-(2-((3aR,4R,6R,7aS)-3a,5,5-trimethylhexahydro-4,6-methanobenzo[d][1,3,2]dioxaborol-2-yl)ethyl)cyclohexane-1-carboxylic acid dihydrochloride], the IC50 in test [1], in test [2] and in test [3] was 1 to 100 nM each time.
With `CNC[C@@H]1CC[C@@H](CCB(O)O)C[C@]1(N)C(=O)O` [Example 39, (1R,2S,5R)-1-amino-5-(2-boronoethyl)-2-((methylamino)methyl)cyclohexanecarboxylic acid dihydrochloride], the IC50 was 100 to 1000 nM in test [1], 1 to 100 nM in test [2] and 1 to 100 nM in test [3].
Regarding `NC1CC(CCB(O)O)CC1(N)C(=O)O` (centres unmarked) [Example 62, 1,2-diamino-4-(2-boronoethyl)cyclopentanecarboxylic acid dihydrochloride], the IC50 in test [1] was 10000 to 100000 nM; in test [2] it was 100 to 1000 nM; in test [3], 1000 to 10000 nM.
Turning to `CC(C)(C)NC[C@@H]1CC[C@@H](CCB(O)O)C[C@]1(N)C(=O)O` (racemic) [Example 33, rac-(1R,2S,5R)-1-amino-5-(2-boronoethyl)-2-((tert-butylamino)methyl)cyclohexanecarboxylic acid dihydrochloride], the IC50 was 100 to 1000 nM in test [1] and 1 to 100 nM in test [3].
On to `N[C@@]1(C(=O)O)CCC[C@@H](CCB(O)O)C1` (racemic) [Example 10, rac-(1S,3R)-1-Amino-3-(2-boronoethyl)cyclohexane-1-carboxylic acid hydrochloride], for which the figures for the IC50 in test [1], in test [2] and in test [3] were 10000 to 100000 nM, 1000 to 10000 nM and 1000 to 10000 nM, respectively.
For `N[C@]1(C(=O)O)C[C@H](CCB(O)O)CC[C@H]1CN1C2CCC1CC2` (racemic) [Example 34, rac-(1R,2S,5R)-2-(7-azabicyclo[2.2.1]heptan-7-ylmethyl)-1-amino-5-(2-boronoethyl)cyclohexanecarboxylic acid dihydrochloride], the values for the IC50 in test [1] and in test [3] were 100 to 1000 nM and 1 to 100 nM, respectively.
On to `N[C@@]1(C(=O)O)CNC[C@@H](CCB(O)O)C1` (racemic) [Example 57, rac-(3R,5S)-3-amino-5-(2-boronoethyl)piperidine-3-carboxylic acid dihydrochloride], for which the IC50 is 10000 to 100000 nM in test [1] and 1000 to 10000 nM in test [3].
Regarding `CC(C)N(C)C[C@@H]1CC[C@@H](CCB(O)O)C[C@]1(N)C(=O)O` (racemic) [Example 32, rac-(1R,2S,5R)-1-amino-5-(2-boronoethyl)-2-((isopropyl(methyl)amino)methyl)cyclohexanecarboxylic acid], the IC50 in test [1] and in test [3] was 100 to 1000 nM in each case.
